Broadly, the CC50 is the concentration giving 50% cytotoxicity. Broadly, the IC50 is the concentration at which inhibition is half-maximal.

The record followed here is patent publication US20110224208A1, “NOVEL INHIBITORS OF FLAVIVIRUS REPLICATION” (KATHOLIEKE UNIVERSITEIT LEUVEN, K.U. LEUVEN R&D, priority 2008, published 2011).

SMILES strings stand for the structures. In brackets after ≈: the same amount, converted by molar mass.

Data set [1] in a line: Proliferation of exponentially growing Huh-5-2 cells (MTS method). Particulars: human, CC50, concentration required to inhibit the proliferation of exponentially growing Huh-5-2 cells by 50%; Table 2. Here is the method: (§1) Cells were seeded at a density of 7000 cells per well in 96 well View Plate™ (Packard) in medium containing the same components as described above, except for G418. Cells were allowed to adhere and proliferate for 24 hr. At that time, culture medium was removed and serial dilutions of the test compounds were added in culture medium lacking G418. Interferon alfa 2a (500 IU) was included as a positive control. Plates were further incubated at 37° C. and 5% CO2 for 72 hours. Replication of the HCV replicon in Huh-5 cells results in luciferase activity in the cells. Luciferase activity is measured by adding 50 μl of 1×Glo-lysis buffer (Promega) for 15 minutes followed by 50 ul of the Steady-Glo Luciferase assay reagent (Promega). Luciferase activity is measured with a luminometer and the signal in each individual well is expressed as a percentage of the untreated cultures. […] Instead the density of the culture is measured by means of the MTS method (Promega).
For orientation: Formazan colour is commonly taken as a measure of viable cells.

Data set [2] concerns HCV replicon I389luc-ubi-neo/NS3-3'/5.1. As to the kind of experiment: Anti-HCV replicon assay (luciferase activity) in Huh-5-2 cells. The settings on record: Hepatitis C virus, Huh-5-2, 72 h, concentration required to inhibit luciferase activity in the replicon system by 50%. Format: cell-based, Hepatitis C virus. As to the method: as §1
Background: A replicon is a self-replicating genome or part of one, used to study replication in cells.

For `CCN1C(=O)c2ccccc2C(C(=O)Nc2cccc(OC)c2)C1c1cccs1` (centres unmarked) [C5, 2-Ethyl-N-(3-methoxyphenyl)-1-oxo-3-(thiophen-2-yl)-1,2,3,4-tetrahydroisoquinoline-4-carboxamide], half-maximal cytotoxicity in data set [1] (CC50 at 72 h) was put at 33.4 µg/mL (≈ 82.2 µM). Moreover, it took 3.6 µg/mL (≈ 8.86 µM) to reach half-maximal inhibition in data set [2] (IC50).
For `COCCN1C(=O)c2ccccc2C(C(=O)Nc2cccc(OC)c2)C1c1ccco1` (centres unmarked) [C6, 3-(furan-2-yl)-2-(2-methoxyethyl)-N-(3-methoxyphenyl)-1-oxo-1,2,3,4-tetrahydroisoquinoline-4-carboxamide], in that order: 69.6 µg/mL (≈ 166 µM) and 6.3 µg/mL (≈ 15 µM).
On the same counts, the results for `COCCN1C(=O)c2ccccc2C(C(=O)Nc2cccc(OC)c2)C1c1cccc(F)c1` (centres unmarked) [C8, 3-(3-Fluorophenyl)-2-(2-methoxyethyl)-N-(3-methoxyphenyl)-1-oxo-1,2,3,4-tetrahydroisoquinoline-4-carboxamide] are 54.5 µg/mL (≈ 122 µM) and 21.8 µg/mL (≈ 48.6 µM).
Regarding `COCCN1C(=O)c2ccccc2C(C(=O)Nc2cccc(OC)c2)C1c1ccc(F)cc1` (centres unmarked) [C9, 3-(4-Fluorophenyl)-2-(2-methoxyethyl)-N-(3-methoxyphenyl)-1-oxo-1,2,3,4-tetrahydroisoquinoline-4-carboxamide], in data set [1], it took 50.7 µg/mL (≈ 113 µM) to reach half-maximal cytotoxicity (CC50 at 72 h). Also, it took 13.4 µg/mL (≈ 29.8 µM) to reach half-maximal inhibition in data set [2] (IC50).
On the same counts, the results for `COCCN1C(=O)c2ccccc2C(C(=O)Nc2cccc(OC)c2)C1c1ccsc1` (centres unmarked) [C11, 2-(2-Methoxyethyl)-N-(3-methoxyphenyl)-1-oxo-3-(thiophen-3-yl)-1,2,3,4-tetrahydroisoquinoline-4-carboxamide] are 37.9 µg/mL (≈ 86.8 µM) and 1.2 µg/mL (≈ 2.75 µM).
For `COCCCN1C(=O)c2ccccc2C(C(=O)Nc2cccc(OC)c2)C1c1cccs1` (centres unmarked) [C13, N-(3-methoxyphenyl)-2-(3-methoxypropyl)-1-oxo-3-(thiophen-2-yl)-1,2,3,4-tetrahydroisoquinoline-4-carboxamide], in that order: 33.3 µg/mL (≈ 73.9 µM) and 2.11 µg/mL (≈ 4.68 µM).
`COCCN1C(=O)c2ccccc2C(C(=O)Nc2cccc(OC)c2)C1c1sccc1Cl` (centres unmarked) [C17, 3-(3-Chlorothiophen-2-yl)-2-(2-methoxyethyl)-N-(3-methoxyphenyl)-1-oxo-1,2,3,4-tetrahydroisoquinoline-4-carboxamide] returned a CC50 at 72 h in data set [1] of 50.4 µg/mL (≈ 107 µM). In data set [2], this compound gave an IC50 of 3.8 µg/mL (≈ 8.07 µM).
For `COCCN1C(=O)c2ccccc2C(C(=O)Nc2ccccc2)C1c1cccs1` (centres unmarked) [C18, 2-(2-Methoxyethyl)-1-oxo-N-phenyl-3-(thiophen-2-yl)-1,2,3,4-tetrahydroisoquinoline-4-carboxamide], in that order: 78.2 µg/mL (≈ 192 µM) and 2.65 µg/mL (≈ 6.52 µM).
On the same counts, the results for `COCCN1C(=O)c2ccccc2C(C(=O)Nc2ccc(C(F)(F)F)cc2)C1c1cccs1` (centres unmarked) [C19, 2-(2-Methoxyethyl)-1-oxo-3-(thiophen-2-yl)-N-(4-(trifluoromethyl)phenyl)-1,2,3,4-tetrahydroisoquinoline-4-carboxamide] are 12.1 µg/mL (≈ 25.5 µM) and 5.2 µg/mL (≈ 11 µM).
Compound `COCCN1C(=O)c2ccccc2C(C(=O)Nc2ccc(C#N)cc2)C1c1cccs1` (centres unmarked) [C20, N-(4-cyanophenyl)-2-(2-methoxyethyl)-1-oxo-3-(thiophen-2-yl)-1,2,3,4-tetrahydroisoquinoline-4-carboxamide] displayed a cytotoxic concentration (CC50) at 72 h in data set [1] of 42 µg/mL (≈ 97.3 µM). Further, the midpoint of inhibition in data set [2], the IC50, lay at 0.4 µg/mL (≈ 0.927 µM).
For `COc1cccc(NC(=O)C2c3ccccc3C(=O)N(CCO)C2c2cccs2)c1` (centres unmarked) [C23, 2-(2-Hydroxyethyl)-N-(3-methoxyphenyl)-1-oxo-3-(thiophen-2-yl)-1,2,3,4-tetrahydroisoquinoline-4-carboxamide], in that order: 118 µg/mL (≈ 280 µM) and 43 µg/mL (≈ 102 µM).
Take `COc1cccc(NC(=O)C2c3ccccc3C(=O)N(C3CCCCC3)C2c2cccs2)c1` (centres unmarked) [C25, 2-Cyclohexyl-N-(3-methoxyphenyl)-1-oxo-3-(thiophen-2-yl)-1,2,3,4-tetrahydroisoquinoline-4-carboxamide]: the 50% cytotoxic concentration (CC50) at 72 h in data set [1] was 5.28 µg/mL (≈ 11.5 µM). The IC50 in data set [2] was 0.98 µg/mL (≈ 2.13 µM).
For `COCCN1C(=O)c2ccccc2C(C(=O)Nc2cccc(OC)c2)C1c1ccc[nH]1` (centres unmarked) [C29, 2-(2-Methoxyethyl)-N-(3-methoxyphenyl)-1-oxo-3-(1H-pyrrol-2-yl)-1,2,3,4-tetrahydroisoquinoline-4-carboxamide], in that order: 54.5 µg/mL (≈ 130 µM) and 14.8 µg/mL (≈ 35.2 µM).
`COCCN1C(=O)c2ccccc2C(C(=O)Nc2cccc(OC)c2)C1c1ccncc1` (centres unmarked) [C30, 2-(2-Methoxyethyl)-N-(3-methoxyphenyl)-1-oxo-3-(pyridin-4-yl)-1,2,3,4-tetrahydroisoquinoline-4-carboxamide]: it took 70.3 µg/mL (≈ 163 µM) to reach half-maximal cytotoxicity in data set [1] (CC50 at 72 h). Moreover, the concentration for half-maximal inhibition (IC50) in data set [2] stood at 36.7 µg/mL (≈ 85 µM).
On the same counts, the results for `COCCn1c(-c2cccs2)c(C(=O)Nc2cccc(OC)c2)c2ccccc2c1=O` [C32, 2-(2-methoxyethyl)-N-(3-methoxyphenyl)-1-oxo-3-(thiophen-2-yl)-1,2-dihydroisoquinoline-4-carboxamide] are 73.7 µg/mL (≈ 170 µM) and 37.3 µg/mL (≈ 85.8 µM).
Compound `COc1cccc(NC(=O)C2c3ccccc3C(=O)N(Cc3ccccc3)C2c2cccs2)c1` (centres unmarked) [C37, 2-Benzyl-N-(3-methoxyphenyl)-1-oxo-3-(thiophen-2-yl)-1,2,3,4-tetrahydroisoquinoline-4-carboxamide] showed a CC50 at 72 h in data set [1] of 92.7 µg/mL (≈ 198 µM). The 50% inhibitory concentration (IC50) in data set [2] was found to be 1.5 µg/mL (≈ 3.2 µM).
On the same counts, the results for `COCCN1C(=O)c2cccc(C)c2C(C(=O)Nc2cccc(OC)c2)C1c1cccs1` (centres unmarked) [C39, 2-(2-Methoxyethyl)-N-(3-methoxyphenyl)-5-methyl-1-oxo-3-(thiophen-2-yl)-1,2,3,4-tetrahydroisoquinoline-4-carboxamide] are 80 µg/mL (≈ 178 µM) and 1.3 µg/mL (≈ 2.89 µM).
Take `COCCN1C(=O)c2ccccc2C(C(=O)NCCc2cn(C)c3ccccc23)C1c1cccs1` (centres unmarked) [C44, 2-(2-Methoxyethyl)-N-(2-(1-methyl-1H-indol-3-yl)ethyl)-1-oxo-3-(thiophen-2-yl)-1,2,3,4-tetrahydroisoquinoline-4-carboxamide]: in data set [1], half-maximal cytotoxicity (CC50 at 72 h) was put at 28.4 µg/mL (≈ 58.2 µM). Also, inhibition in data set [2] was half-maximal at 4.17 µg/mL (≈ 8.55 µM) (IC50).
`COCCN1C(=O)c2ccccc2C(C(=O)Nc2cc[nH]n2)C1c1cccs1` (centres unmarked) [C184, 2-(2-methoxyethyl)-1-oxo-N-(1H-pyrazol-3-yl)-3-(thiophen-2-yl)-1,2,3,4-tetrahydroisoquinoline-4-carboxamide] returned a half-inhibitory concentration (IC50) in data set [2] of 55 µg/mL (≈ 139 µM).
As for `COCCN1C(=O)c2ccccc2C(C(=O)Nc2ccc(CN3CCOCC3)cc2)C1c1cccs1` (centres unmarked) [C188, 2-(2-methoxyethyl)-N-(4-(morpholinomethyl)phenyl)-1-oxo-3-(thiophen-2-yl)-1,2,3,4-tetrahydroisoquinoline-4-carboxamide], the 50% inhibitory concentration (IC50) in data set [2] worked out at 0.1 µg/mL (≈ 0.198 µM). Compared with the last compound, the IC50 is about 550-fold lower.
Still for that read-out and setting: as for `COCCN1C(=O)c2ccccc2C(C(=O)Nc2nc(-c3ccccc3)ns2)C1c1cccs1` (centres unmarked) [C194, 2-(2-methoxyethyl)-1-oxo-N-(3-phenyl-1,2,4-thiadiazol-5-yl)-3-(thiophen-2-yl)-1,2,3,4-tetrahydroisoquinoline-4-carboxamide], the figure is 0.019 µg/mL (≈ 0.0387 µM); as for `COCCN1C(=O)c2ccccc2C(C(=O)Nc2ccc3occc3c2)C1c1cccs1` (centres unmarked) [C195, N-(benzofuran-5-yl)-2-(2-methoxyethyl)-1-oxo-3-(thiophen-2-yl)-1,2,3,4-tetrahydroisoquinoline-4-carboxamide], 0.13 µg/mL (≈ 0.291 µM).
Still for that read-out and setting: as for `COCCN1C(=O)c2ccccc2C(C(=O)Nc2cc(C3CC3)nn2C)C1c1cccs1` (centres unmarked) [C197, N-(3-cyclopropyl-1-methyl-1H-pyrazol-5-yl)-2-(2-methoxyethyl)-1-oxo-3-(thiophen-2-yl)-1,2,3,4-tetrahydroisoquinoline-4-carboxamide], the figure is 4 µg/mL (≈ 8.88 µM); as for `COCCN1C(=O)c2ccccc2C(C(=O)Nc2ccc3c(c2)S(=O)(=O)C=C3)C1c1cccs1` (centres unmarked) [C198, N-(1,1-dioxobenzo[b]thiophen-6-yl)-2-(2-methoxyethyl)-1-oxo-3-(thiophen-2-yl)-1,2,3,4-tetrahydroisoquinoline-4-carboxamide], 4 µg/mL (≈ 8.09 µM); as for `COCCN1C(=O)c2ccccc2C(C(=O)Nc2ccc(-n3nc(C)cc3C)cc2)C1c1cccs1` (centres unmarked) [C201, N-(4-(3,5-dimethyl-1H-pyrazol-1-yl)phenyl)-2-(2-methoxyethyl)-1-oxo-3-(thiophen-2-yl)-1,2,3,4-tetrahydroisoquinoline-4-carboxamide], 0.078 µg/mL (≈ 0.156 µM).
In the case of `COCCN1C(=O)c2ccccc2C(C(=O)Nc2cccc(-c3cnco3)c2)C1c1cccs1` (centres unmarked) [C210, 2-(2-methoxyethyl)-N-(3-(oxazol-5-yl)phenyl)-1-oxo-3-(thiophen-2-yl)-1,2,3,4-tetrahydroisoquinoline-4-carboxamide], half-maximal inhibition in data set [2] (IC50) was put at 0.072 µg/mL (≈ 0.152 µM).
In data set [2], `COCCN1C(=O)c2ccccc2C(C(=O)Nc2onc(C)c2C)C1c1cccs1` (centres unmarked) [C220, N-(3,4-dimethylisoxazol-5-yl)-2-(2-methoxyethyl)-1-oxo-3-(thiophen-2-yl)-1,2,3,4-tetrahydroisoquinoline-4-carboxamide] displayed an IC50 of 2.67 µg/mL (≈ 6.27 µM).
The same measure, in the same setting: as for `COCCN1C(=O)c2ccccc2C(C(=O)Nc2ccc(-n3cccc3)c(C#N)c2)C1c1cccs1` (centres unmarked) [C222, N-(3-cyano-4-(1H-pyrrol-1-yl)phenyl)-2-(2-methoxyethyl)-1-oxo-3-(thiophen-2-yl)-1,2,3,4-tetrahydroisoquinoline-4-carboxamide], the figure is 0.21 µg/mL (≈ 0.423 µM); as for `COCCN1C(=O)c2ccccc2C(C(=O)Nc2ccc(Cl)cn2)C1c1cccs1` (centres unmarked) [C223, N-(5-chloropyridin-2-yl)-2-(2-methoxyethyl)-1-oxo-3-(thiophen-2-yl)-1,2,3,4-tetrahydroisoquinoline-4-carboxamide], 1 µg/mL (≈ 2.26 µM).
